# Test system: antibody R674
# Experiment: Radioimmune assay: displacement of 3H-Compound A' or 3H-Compound B' from antibody R674
# Type: binding, rabbit
# Details: up to 10 μM (the highest concentration tested)
# Procedure: Non-antibody-bound radioactive isotope was removed from the reaction mixture by its absorption onto dextran-coated activated charcoal. […] The activated charcoal was then suspended to 3% (w/v) in PBS dextran and allowed to stand overnight, washed once again in PBS dextran and resuspended to 3% (w/v) in PBS dextran and stored at 4° C. Immediately before use in the assay, the dextran-coated activated charcoal was diluted 10-fold in DULBECCO's PBS and 1 ml was added to each assay tube. […] The supernatant fluid was decanted into 9 ml of AQUASOL-2 scintillation fluid and radioactivity counted in a beta-counter. Each assay contains charcoal free controls, to which 1 ml PBS was added, for determination of total counts (BO), and antibody free controls for determination of non-specific binding. Percent specific binding was determined by subtracting the value for non-specific binding from the value of total antiserum binding and then dividing by the total radioactivity added.
# The antiserum was diluted in PET/GEL buffer (1:12,000 final dilution in the 200 μl assay volume) as described above so that it binds 20-30% of the total radioactivity added. The same diluted stock was then used for all assay tubes with-in the same assay. […] The assay was set up on a competition basis. The unlabeled reactivation product competed with the tritiated reactivation product for binding to the antibody R674. […]
row,SMILES,effect on binding to antibody R674
1,NC(N)=O [Urea],without effect
2,N=C(N)NCCC[C@H](N)C(=O)O [arginine],without effect

# — patent US5276139A, “Haptens useful in evaluating inhibition of PNN elastase by N-substituted azetidinones” (Merck & Co., Inc., priority 1991, dated 1994)
